This note sets out measurements from patent US12661410B2, “Compounds for targeted degradation of RET” (C4 Therapeutics, Inc., priority 2020, dated 2026).

Assay [1] has as its target T1, RET(KD: 658-1114 G810R) (Homo sapiens, UniProt P07949, G810R).
T1 construct: 658-1114; expressed in transfected cells; host or cells: 293T.165 (293T cells, generated in-house)
T1 sequence (P07949 658-1114 G810R): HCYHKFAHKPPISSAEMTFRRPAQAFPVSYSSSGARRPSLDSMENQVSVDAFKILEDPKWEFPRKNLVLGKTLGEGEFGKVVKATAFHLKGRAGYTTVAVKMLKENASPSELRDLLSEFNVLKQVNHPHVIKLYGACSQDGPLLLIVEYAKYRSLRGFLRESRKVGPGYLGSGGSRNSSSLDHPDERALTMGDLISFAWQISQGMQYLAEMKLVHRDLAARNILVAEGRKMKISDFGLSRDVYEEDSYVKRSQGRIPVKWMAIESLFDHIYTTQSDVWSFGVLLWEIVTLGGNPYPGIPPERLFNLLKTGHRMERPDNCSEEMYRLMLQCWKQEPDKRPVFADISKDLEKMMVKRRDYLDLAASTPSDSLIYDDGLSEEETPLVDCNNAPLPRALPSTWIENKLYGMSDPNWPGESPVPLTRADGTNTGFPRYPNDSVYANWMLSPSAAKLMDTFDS
The assay is described as follows: HiBiT-Degradation, RET G810R degradation assay (Nano-Glo HiBiT Lytic), 293T.165 cells. Format: cell-based. The note with it: for Emax / DC50: 6.0 hours; for Emax: % remaining protein, read-out: 293T.165 RET(KD: 658-1114 G810R) 6.0 hours (Emax); for DC50: read-out: 293T.165 RET(KD: 658-1114 G810R) 6.0 hours (DC50). In outline: (§1)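 6 h treatment, 293T.144 (WT) / 293T.165 (G810R) cells ectopically expressing HiBiT-fused RET KD; 11-pt half-log dilution, top 10 μM, n=2. Nano-Glo HiBiT lytic detection, luminescence. Output: DC50, Emax (% protein remaining).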
For orientation: HiBiT is a short tag that completes a luciferase, so light tracks the accessible tagged protein.

Assay [2] deals with T2, RET (658-1114) (Homo sapiens, UniProt P07949).
T2 construct: 658-1114; expressed in transfected cells; host or cells: 293T.144 (293T cells, generated in-house)
T2 sequence (P07949 658-1114): T1 sequence (P07949 658-1114 G810R) with R153G
Put plainly: HiBiT-Degradation, RET wild-type degradation assay (Nano-Glo HiBiT Lytic), 293T.144 cells. Format: cell-based. The settings on record: for Emax / DC50: 6.0 hours; for Emax: read-out: 293T.144 RET (658-1114) 6.0 hours (Emax); for DC50: read-out: 293T.144 RET (658-1114) 6.0 hours (DC50). In outline:
as §1

Setting [3] is: half-maximal degradation concentration.

Substitutions are numbered along the chain they refer to. Read-outs that look alike come from different tables or passages of the source.

With `N#Cc1cnn2cc(-c3cnn(C4CCN(C(=O)CC5(O)CCN(c6ccc(NC7CCC(=O)NC7=O)cc6F)CC5)CC4)c3)nc(-c3ccc(N4CCN(C(=O)C5CCCCC5)CC4)nc3)c12` (stereo not shown) [Compound 107, 4-[6-[4-(cyclohexanecarbonyl)piperazin-1-yl]-3-pyridyl]-6-[1-[1-[2-[1-[4-[(2,6-dioxo-3-piperidyl)amino]-2-fluoro-phenyl]-4-hydroxy-4-piperidyl]acetyl]-4-piperidyl]pyrazol-4-yl]pyrazolo[1,5-a]pyrazine-3-carbonitrile], the “293T.165 RET(KD: 658-1114 G810R) 6.0 hours (IP) [nM]” value in assay [1] is listed as “++++ (<50 nM = ++++)”. The Emax in assay [1] and in assay [2] (% remaining protein) was less than 30% each time. Further, the DC50 is less than 100 nM in assay [1] (setting [3]) and less than 50 nM in assay [2] (setting [3]). For the same compound, the “293T.144 RET (658-1114) 6.0 hours (IP) [nM]” value (shortened to “293T.144 RET”) in assay [2] is on record as “++++ (<50 nM = ++++)”.
Turning to `N#Cc1cnn2cc(-c3cnn(C4CCN(C(=O)CN5CCC(c6ccc(NC7CCC(=O)NC7=O)cc6F)CC5)CC4)c3)nc(-c3ccc(N4CCN(C(=O)Cc5ccc(F)cn5)CC4)nc3)c12` (stereo not shown) [Compound 51, 6-[1-[1-[2-[4-[4-[(2,6-dioxo-3-piperidyl)amino]-2-fluoro-phenyl]-1-piperidyl]acetyl]-4-piperidyl]pyrazol-4-yl]-4-[6-[4-[2-(5-fluoro-2-pyridyl)acetyl]piperazin-1-yl]-3-pyridyl]pyrazolo[1,5-a]pyrazine-3-carbonitrile], the Emax in assay [1] was less than 50%. The DC50 in assay [1] (setting [3]) was less than 100 nM. In assay [1] (HiBiT-Degradation), the “293T.165 RET(KD: 658-1114 G810R) 6.0 hours (Emax)” value is “+++ (<50% = +++)”, the “293T.165 RET(KD: 658-1114 G810R) 6.0 hours (IP) [nM]” value is given as “++++ (< 50 nM = ++++)” and the DC50 was less than 100 nM. For the same compound, in assay [2] (HiBiT-Degradation), the “293T.144 RET” value is “++++ (< 50 nM = ++++)”, the DC50 was less than 50 nM and the Emax was less than 30%.
Turning to `CC1(c2ncccn2)CCN(c2ccc(-c3nc(-c4cnn(C5CCN(C(=O)CC6(O)CCN(c7ccc(NC8CCC(=O)NC8=O)cc7F)CC6)CC5)c4)cn4ncc(C#N)c34)cn2)CC1` (stereo not shown) [Compound 104, 6-[1-[1-[2-[1-[4-[(2,6-dioxo-3-piperidyl)amino]-2-fluoro-phenyl]-4-hydroxy-4-piperidyl]acetyl]-4-piperidyl]pyrazol-4-yl]-4-[6-(4-methyl-4-pyrimidin-2-yl-1-piperidyl)-3-pyridyl]pyrazolo[1,5-a]pyrazine-3-carbonitrile], the “293T.165 RET(KD: 658-1114 G810R) 6.0 hours (IP) [nM]” value in assay [1] is “++++ (<50 nM = ++++)”. The Emax in assay [1] and in assay [2] (% remaining protein) was less than 30% each time. Besides, the DC50 in assay [1] (setting [3]) and in assay [2] (setting [3]) was less than 50 nM in each case. For the same compound, the “293T.144 RET” value in assay [2] was “++++ (<50 nM = ++++)”.
For the compound `CCC1(C(=O)NC2CCC2)CCN(c2ccc(-c3nc(-c4cnn([C@H]5CC[C@H](N6CCC(c7ccc8c(c7)CCN8[C@@H]7CCC(=O)NC7=O)CC6)CC5)c4)cn4ncc(C#N)c34)cn2)CC1` (single isomer, unassigned) [Compound 129], the “293T.165 RET(KD: 658-1114 G810R) 6.0 hours (IP) [nM]” value in assay [1] is “++++ (<50 nM = ++++)”. Also, the Emax in assay [1] and in assay [2] (% remaining protein) was less than 30% each time. Besides, the DC50 in assay [1] (setting [3]) and in assay [2] (setting [3]) was less than 50 nM in each case. Moreover, the “293T.144 RET” value in assay [2] is “++++ (<50 nM = ++++)”.
`N#Cc1cnn2cc(-c3cnn([C@H]4CC[C@H](CCN5CCC(c6ccc(NC7CCC(=O)NC7=O)cc6F)CC5)CC4)c3)cc(-c3ccc(N4CCN(C(=O)Cc5ccc(F)cn5)CC4)nc3)c12` (stereo partly shown) [Compound 57, 6-[1-[(1r,4r)-4-[2-[4-[4-[(2,6-dioxo-3-piperidyl)amino]-2-fluoro-phenyl]-1-piperidyl]ethyl]cyclohexyl]pyrazol-4-yl]-4-[6-[4-[2-(5-fluoro-2-pyridyl)acetyl]piperazin-1-yl]-3-pyridyl]pyrazolo[1,5-a]pyridine-3-carbonitrile]: in assay [1], the Emax is less than 30%. In addition, the DC50 in assay [1] (setting [3]) was less than 50 nM. Besides, in assay [1] (HiBiT-Degradation), the “293T.165 RET(KD: 658-1114 G810R) 6.0 hours (Emax)” value is recorded as “++++ (< 30% = ++++)”, the “293T.165 RET(KD: 658-1114 G810R) 6.0 hours (IP) [nM]” value is listed as “++++ (< 50 nM = ++++)” and the DC50 is less than 50 nM. In addition, in assay [2] (HiBiT-Degradation), the “293T.144 RET” value is recorded as “++++ (< 50 nM = ++++)”, the DC50 is less than 50 nM and the Emax was less than 30%.

The term Emax denotes the maximal effect, on the per cent scale that the assay sets. A word on the DC50: it is the midpoint of the concentration-degradation curve.
